Laboratory results taken from the supplement of paper PMC10627819.

Assays:
[1] = tested on: S. aureus Newman; assay: fitness (endpoint OD595 vs no drug) (fraction); higher = more growth
Summary of the method: (§1)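 Fitness expresses the optical density reached at the stationary-phase transition as a fraction of the robust mean of no-drug control wells. It is capped at 1. Measurements were OD595 every 30 min for 14 h at 37 °C after inoculation of 384-well plates at OD595 0.01 (30 µl, or 55 µl for S. pneumoniae), minus the first reading.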

[2] = tested on: S. pneumoniae D39V; assay: as above
Summary of the method: as §1

[3] = tested on: B. subtilis 168; assay: Bliss interaction score (quartile over a dose matrix) (fitness difference); higher = more antagonism (negative = synergy)
Summary of the method: (§2)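 Growth was read as OD595 when cultures entered stationary phase, and each value was divided by the plate's robust no-drug mean and capped at 1. This normalised ratio is the fitness value, and fitness for each single drug came from the combination data. The Bliss score subtracts the expected fitness, taken as the product, from the observed fitness and is given as quartiles across technical, biological and donor/recipient replicates.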

[4] = tested on: S. aureus DSM 20231; assay: as above
Summary of the method: as §2

[5] = tested on: S. aureus Newman; assay: as above
Summary of the method: as §2

[6] = tested on: S. pneumoniae D39V; assay: as above
Summary of the method: as §2

[7] = tested on: B. subtilis 168; assay: fitness (endpoint OD595 vs no drug) (fraction); higher = more growth; details: main component drawn
Summary of the method: as §1
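Wherever Bliss interaction score (quartile over a dose matrix) is given: first quartile when negative (synergy) and third quartile when positive (antagonism).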
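Wherever fitness (endpoint OD595 vs no drug) is given: OD595 on entry to stationary phase over no-drug wells; at most 1.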

CN(C)c1cc(NC(=O)CNC(C)(C)C)c(O)c2c1C[C@H]1C[C@H]3[C@H](N(C)C)C(O)=C(C(N)=O)C(=O)[C@@]3(O)C(O)=C1C2=O [Tigecycline] + CN[C@H](CC(C)C)C(=O)N[C@H]1C(=O)N[C@@H](CC(N)=O)C(=O)N[C@H]2C(=O)N[C@H]3C(=O)N[C@H](C(=O)N[C@H](C(=O)O)c4cc(O)cc(O)c4-c4cc3ccc4O)[C@H](O)c3ccc(c(Cl)c3)Oc3cc2cc(c3O[C@@H]2O[C@H](CO)[C@@H](O)[C@H](O)[C@H]2O[C@H]2C[C@](C)(N)[C@H](O)[C@H](C)O2)Oc2ccc(cc2Cl)[C@H]1O [Vancomycin]
Details	fitness
[1], first compound 0.039 µg/mL, partner 0.1875 µg/mL	0.974
[1], first compound 0.039 µg/mL, partner 0.375 µg/mL	0.998
[1], first compound 0.039 µg/mL, partner 0.75 µg/mL	≥ 1
[1], first compound 0.078 µg/mL, partner 0.1875 µg/mL	≥ 1
[1], first compound 0.078 µg/mL, partner 0.375 µg/mL	0.99
[1], first compound 0.078 µg/mL, partner 0.75 µg/mL	0.987
[1], first compound 0.156 µg/mL, partner 0.1875 µg/mL	0.992
[1], first compound 0.156 µg/mL, partner 0.375 µg/mL	≥ 1
[1], first compound 0.156 µg/mL, partner 0.75 µg/mL	0.987
[2], first compound 0.65 µg/mL, partner 0.03125 µg/mL	0.967
[2], first compound 0.65 µg/mL, partner 0.0625 µg/mL	0.939
[2], first compound 0.65 µg/mL, partner 0.125 µg/mL	0.871
[2], first compound 0.65 µg/mL, partner 0.5 µg/mL	0.0606
[2], first compound 1.3 µg/mL, partner 0.03125 µg/mL	0.989
[2], first compound 1.3 µg/mL, partner 0.0625 µg/mL	0.937
[2], first compound 1.3 µg/mL, partner 0.125 µg/mL	0.882
[2], first compound 1.3 µg/mL, partner 0.5 µg/mL	0.0528
[2], first compound 2.6 µg/mL, partner 0.03125 µg/mL	0.961
[2], first compound 2.6 µg/mL, partner 0.0625 µg/mL	0.962
[2], first compound 2.6 µg/mL, partner 0.125 µg/mL	0.918
[2], first compound 2.6 µg/mL, partner 0.25 µg/mL	0.543
[2], first compound 2.6 µg/mL, partner 0.5 µg/mL	0.0988

Details	Bliss interaction score
[3]	0.0787
[4]	0.0923
[5]	0.0428
[6]	0.0783

O=C(O)c1cn(C2CC2)c2cc(N3CCNCC3)c(F)cc2c1=O [Ciprofloxacin] + Cn1nnc(-c2ccc(-c3ccc(N4C[C@H](CO)OC4=O)cc3F)cn2)n1 [Tedizolid]
fitness
Details	partner 0.03125 µg/mL	partner 0.0625 µg/mL	partner 0.125 µg/mL	partner 0.25 µg/mL	partner 0.5 µg/mL
[1], first compound 0.0375 µg/mL	–	–	0.633	–	–
[1], first compound 0.075 µg/mL	–	0.56	0.592	0.423	–
[1], first compound 0.15 µg/mL	–	–	–	0.13	–
[2], first compound 0.125 µg/mL	0.935	0.95	0.771	0.331	0.102
[2], first compound 0.25 µg/mL	0.913	0.945	0.703	–	–
[2], first compound 0.5 µg/mL	0.828	0.889	–	0.292	0.0949

[2], first compound 0.25 µg/mL, one replicate
Details	fitness
partner 0.25 µg/mL	0.257
partner 0.5 µg/mL	0.0574

Details	Bliss interaction score
[3]	0.26
[4]	0.0744
[5]	0.0978
[6]	-0.0691

C[C@@H]1O[C@@H]1P(=O)(O)O [Fosfomycin] + CCC(C)C1C(=O)NC(=C)C(=O)NC(C(=O)NC(CSCC(C(=O)N1)NC(=O)/C(=C/C)/NC(=O)C(C(C)CC)N)C(=O)NC2C(SCC(NC(=O)CNC(=O)C3CCCN3C2=O)C(=O)NC(CCCCN)C(=O)NC4C(SCC(NC(=O)CNC(=O)C(NC(=O)C(NC(=O)C(NC(=O)CNC4=O)C)CC(C)C)CCSC)C(=O)NC(CC(=O)N)C(=O)NC(CCSC)C(=O)NC(CCCCN)C(=O)NC5C(SCC6C(=O)NC(C(=O)NC(CSC(C(C(=O)N6)NC(=O)C(NC5=O)C)C)C(=O)NC(CO)C(=O)NC(C(C)CC)C(=O)NC(CC7=CN=CN7)C(=O)NC(C(C)C)C(=O)NC(=C)C(=O)NC(CCCCN)C(=O)O)CC8=CN=CN8)C)C)C)CC(C)C [Nisin]
fitness, [7]
Details	first compound 1.562 µg/mL	first compound 3.124 µg/mL	first compound 6.248 µg/mL
partner 0.5 µg/mL	0.712	0.59	0.463
partner 1 µg/mL	0.609	0.542	0.397
partner 2 µg/mL	0.45	0.368	0.285

fitness
Details	first compound 1.25 µg/mL	first compound 1.562 µg/mL	first compound 2.5 µg/mL	first compound 3.124 µg/mL	first compound 5 µg/mL	first compound 6.248 µg/mL
[2], partner 0.4275 µg/mL, main component drawn	≥ 1	–	0.942	–	0.852	–
[2], partner 0.855 µg/mL, main component drawn	≥ 1	–	0.998	–	0.889	–
[2], partner 1.6 µg/mL, main component drawn	0.0178	–	0.0062	–	0.0119	–
[2], partner 1.71 µg/mL, main component drawn	0.0788	–	0.0945	–	0.111	–
[2], partner 3.2 µg/mL, main component drawn	0.0247	–	0.0256	–	0.0102	–
[2], partner 6.4 µg/mL, main component drawn	0.0308	–	0.0213	–	0.0062	–
[7], partner 1.25 µg/mL, one replicate	–	0.687	–	0.613	–	0.513
[7], partner 1.6 µg/mL, one replicate	–	0.577	–	0.469	–	0.298
[7], partner 2.5 µg/mL, one replicate	–	0.527	–	0.303	–	0.127
[7], partner 3.2 µg/mL, one replicate	–	0.0483	–	0.024	–	0.0136
[7], partner 4 µg/mL, one replicate	–	0.0272	–	0.0425	–	0.0038
[7], partner 5 µg/mL, one replicate	–	0.0426	–	0.0431	–	0.0232
[7], partner 6.4 µg/mL, one replicate	–	0.0336	–	0.0247	–	0.0329
[7], partner 8 µg/mL, one replicate	–	0.0224	–	0.0352	–	0.007
[7], partner 16 µg/mL, one replicate	–	0.0164	–	0.0164	–	0.0049

main component drawn
Details	Bliss interaction score
[3]	-0.0482
[4]	0.0654
[5]	-0.0541
[6]	-0.0374
